Values of other authors in patent publication US20190343122A1, “IMPROVED INSECT CONTROL STRATEGIES UTILIZING PHEROMONES AND RNAI” (Provivi, Inc., priority 2016, published 2019).

Experiments:
aphids = conditions: in vivo
E. heros = conditions: female E. heros
target genes of pests = conditions: Noctuidae Spodoptera exigua

CCCCCCC=O [Heptanal]
attractiveness of an oviposition substrate (mated H. armigera): significantly increase the attractiveness

CNC(=O)Oc1cccc2ccccc12 [Sevin, carbaryl]
effectiveness against aphids (aphids): not effective against many aphids

CCCC(C)CCCC(C)CCCC(C)C(=O)OC (centres unmarked) [TMTD, methyl 2,6,10-trimethyltridecanoate]
attraction to lures (E. heros): attracted

O=Cc1ccccc1 [benzaldehyde]
attractiveness of an oviposition substrate (mated H. armigera): significantly increase the attractiveness

PGCP
Larval mortality (target genes of pests): Larval mortality increased
